Experimental data taken from patent publication US6172066A, “Dihydropyrimidines and uses thereof” (Synaptic Pharmaceutical Corporation, priority 1997, dated 2001).
Structures can show the parent of a compound that is named as a salt.

The compounds below were run against T1, α1A Human Adrenergic Receptor (Homo sapiens, UniProt P35348) (assay: Radioligand binding, [3H]prazosin displacement, cloned human α1A receptor (LM(tk-) cell membranes)). Settings: [3H]prazosin 0.5 nM, 37° C., 20 min.
T1 construct: The entire coding region of α1A (1401 bp); expressed in transfected cells
T1 sequence (P35348 1-466): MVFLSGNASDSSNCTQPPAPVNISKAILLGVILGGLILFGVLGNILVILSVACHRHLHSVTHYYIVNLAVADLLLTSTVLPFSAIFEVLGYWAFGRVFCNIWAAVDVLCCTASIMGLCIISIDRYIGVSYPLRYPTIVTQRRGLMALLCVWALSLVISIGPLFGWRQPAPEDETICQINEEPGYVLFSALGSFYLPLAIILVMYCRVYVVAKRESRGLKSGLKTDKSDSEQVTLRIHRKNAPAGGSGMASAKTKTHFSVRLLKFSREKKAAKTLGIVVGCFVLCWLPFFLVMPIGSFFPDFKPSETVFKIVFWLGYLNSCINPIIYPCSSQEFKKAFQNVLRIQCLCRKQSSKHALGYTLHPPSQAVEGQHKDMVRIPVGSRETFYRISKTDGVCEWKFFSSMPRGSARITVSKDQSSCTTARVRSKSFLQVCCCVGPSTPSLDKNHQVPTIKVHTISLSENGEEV
Procedure: The activity of compounds at the different human receptors was determined in vitro using cultured cell lines that selectively express the receptor of interest. These cell lines were prepared by transfecting the cloned cDNA or cloned genomic DNA or constructs containing both genomic DNA and cDNA encoding the human α-adrenergic receptors as follows:
The entire coding region of α1A (1401 bp), including 400 base pairs of 5' untranslated sequence (5' UT) and 200 bp of 3' untranslated sequence (3' UT), was cloned into the KpnI site of the polylinker-modifiedpCEXV-3-derived eukaryotic expression vector, EXJ.RH. The construct involved ligating three partial overlapping fragments: a 5' 0.6kb HincII genomic clone, a central 1.8 EcoRI hippocampal cDNA clone, and a 3' 0.6Kb PstI genomic clone. The hippocampal cDNA fragment overlaps with the 5' and 3' genomic clones so that the HincII and PstI sites at the 5' and 3' ends of the cDNA clone, respectively, were utilized for ligation. This full-length clone was cloned into the KpnI site of the expression vector, using the 5' and 3' KpnI sites of the fragment, derived from vector (i.e., pBluescript) and 3'-untranslated sequences, respectively. Stable cell lines were selected as described above. The stable cell line expressing the human α1A receptor used herein was designated L-α1C (old nomenclature) and was deposited with the American Type Culture Collection, 12301 Parklawn Drive, Rockville, Md. 20852, U.S.A. under the provisions of the Budapest Treaty for the International Recognition of the Deposit of Microorganisms for the Purposes of Patent Procedure. The cell line expressing the human α1A receptor was accorded Accession No. CRL 11140, on Sep. 25, 1992.
Transfected cells from culture flasks were scraped into 5 ml of 5 mM Tris-HCl, 5 mM EDTA, pH 7.5, and lysed by sonication. The cell lysates were centrifuged at 1000 rpm for 5 min at 4° C., and the supernatant was centrifuged at 30,000×g for 20 min at 4° C. The pellet was suspended in 50 mM Tris-HCl, 1 mM MgCl2, and 0.1% ascorbic acid at pH 7.5. Binding of the α1 antagonist [^3 H]prazosin (0.5 nM, specific activity 76.2 Ci/mmol) to membrane preparations of LM(tk-) cells was done in a final volume of 0.25 ml and incubated at 37° C. for 20 min. Nonspecific binding was determined in the presence of 10 μM phentolamine. The reaction was stopped by filtration through GF/B filters using a cell harvester. Inhibition experiments, routinely consisting of 7 concentrations of the tested compounds, were analyzed using a non-linear regression curve-fitting computer program to obtain Ki values.

In the case of “cis-6-(3,4,5-Trifluorophenyl)-1-{N-[2-(4-cyano-4-phenyl-cyclohexylamino)ethyl]}-carboxamido-5-acetyl-4-methoxymethyl-2-oxo-1,2,3,6-tetrahydropyrimidine hydrochloride [Example 2]”, the “hα1A pKi” value is reported as 9.51.

Same assay, conditions: [3H]prazosin 0.5 nM, 37° C., 20 min, read-out: hα1A pKi (converted)

COC(=O)C1=C(C)NC(=O)N(C(=O)NCCN[C@H]2CC[C@](C#N)(c3ccccc3F)CC2)C1c1ccc(F)c(F)c1 (single isomer, unassigned; (+)) [Example 13, (+)-cis-6-(3,4-Difluorophenyl)-1-{N-[2-(4-cyano-4-(2-fluorophenyl)-cyclohexylamino)ethyl]}carboxamido-5-methoxycarbonyl-4-methyl-2-oxo-1,2,3,6-tetrahydropyrimidine hydrochloride] and COCC1=C(C(=O)OC)C(c2ccc(F)c(F)c2)N(C(=O)NCCN[C@H]2CC[C@@](C#N)(c3ccccc3)CC2)C(=O)N1 (single isomer, unassigned; (+)) [Example 5, (+)-trans-6-(3,4-Difluorophenyl)-1-{N-[2-(4-cyano-4-phenyl-cyclohexylamino)ethyl]}carboxamido-5-methoxycarbonyl-4-methoxymethyl-2-oxo-1,2,3,6-tetrahydropyrimidine hydrochloride] are within 1.5-fold of each other in Ki: 0.102 nM for the first, 0.126 nM for the second.

Compared with COCC1=C(C(=O)OC)C(c2ccc(F)c(F)c2)N(C(=O)NCCN[C@H]2CC[C@](C#N)(c3ccccc3)CC2)C(=O)N1 (single isomer, unassigned; (+)) [Example 4, (+)-cis-6-(3,4-Difluorophenyl)-1-{N-[2-(4-cyano-4-phenyl-cyclohexylamino)ethyl]}carboxamido-5-methoxycarbonyl-4-methoxymethyl-2-oxo-1,2,3,6-tetrahydropyrimidine hydrochloride], COCC1=C(C(=O)OC)C(c2ccc(F)c(F)c2)N(C(=O)NCCN[C@H]2CC[C@](C#N)(c3ccccn3)CC2)C(=O)N1 (single isomer, unassigned; (+)) [Example 14, (+)-cis-6-(3,4-Difluorophenyl)-1-{N-[2-(4-cyano-4-(2-pyridyl)-cyclohexylamino)ethyl]}carboxamido-5-methoxycarbonyl-4-methoxymethyl-2-oxo-1,2,3,6-tetrahydropyrimidine hydrochloride] is 6.9-fold higher in Ki: 0.135 nM for the first, 0.933 nM for the second.

Going from CCC1=C(C(N)=O)C(c2ccc(F)cc2F)N(C(=O)NCCN[C@H]2CC[C@](C#N)(c3ccccc3)CC2)C(=O)N1 (single isomer, unassigned; (+)) [Example 3, (+)-cis-5-Carboxamido-6-(2,4-difluorophenyl)-1-{N-[2-(4-cyano-4-phenyl-cyclohexylamino)ethyl]}carboxamido-4-ethyl-2-oxo-1,2,3,6-tetrahydropyrimidine hydrochloride] to COCC1=C(C(=O)OC)C(c2ccc(F)c(F)c2)N(C(=O)NCCN[C@H]2CC[C@](C(=O)OC)(c3ccccc3)CC2)C(=O)N1 (single isomer, unassigned; (+)) [Example 11, (+)-cis-6-(3,4-Difluorophenyl)-1-{N-[2-(4-methoxycarbonyl-4-phenyl-cyclohexylamino)ethyl]}carboxamido-5-methoxycarbonyl-4-methoxymethyl-2-oxo-1,2,3,6-tetrahydropyrimidine hydrochloride], the Ki falls from 0.49 nM to 0.219 nM (2.2-fold).

Work on COCC1=C(C(=O)OC)C(c2ccc(F)c(F)c2)N(C(=O)NCCN[C@H]2CC[C@H](c3ccccn3)CC2)C(=O)N1 (single isomer, unassigned; (+)) [Example 7, (+)-trans-6-(3,4-Difluorophenyl)-1-{N-[2-(4-(2-pyridyl)-cyclohexylamino)ethyl]}carboxamido-5-methoxycarbonyl-4-methoxymethyl-2-oxo-1,2,3,6-tetrahydropyrimidine hydrochloride] yielded a Ki of 4.47 nM.
